{
  "source": "patent US20240269157A1",
  "about": "“COMPOSITIONS AND METHODS FOR OVERCOMING MICROENVIRONMENT-MEDIATED RESISTANCE VIA E-SELECTIN TARGETING” (GLYCOMIMETICS, INC., priority 2021, published 2024)",
  "key": {"KG1 cells": {"test_system": "KG1 cells", "assay": "Real time qPCR of mRNAs encoding glycosyltransferases in KG1 cells", "format": "cell-based, human", "set-up": "key to AVG ΔCt (Ct(GOI) − Ave Ct (HKG)) Test Sample: Ct of gene of interest minus average housekeeping-gene Ct; key to Fold Change Test Sample/Control Sample: ratio of 2^(−ΔCt) treated / 2^(−ΔCt) control", "conditions": "KG1, 100 nM 5-AZA, 96 hours", "procedure": "To address the hypothesis that hypomethylation led to enhanced expression of glycosyltransferases, KG1 cells were cultured in the presence or absence of 100 nM 5-AZA for 96 hours followed by real time qPCR analysis of mRNAs encoding relevant glycosyltransferases. Fresh 5-AZA was added to the culture daily. Approximately 1×10^6 cells were pelleted by centrifugation at 250×g for 10 minutes then snap frozen on dry ice. Total RNA was extracted and purified using a QIAGEN RNeasy® Kit with an on-column DNase treatment step (QIAGEN Cat. No. 74104). The fold-change (2^(−Delta Ct)) is the normalized gene expression (2^(−Delta Ct)) in the 5-AZA treated sample divided the normalized gene expression (2^(−Delta Ct)) in the control sample.\nIn Table 1, fold-regulation represents fold-change results in a biologically meaningful way. Fold-change values greater than one indicate a positive- or an up-regulation, and the fold-regulation is equal to the fold-change. Fold-change values less than one indicate a negative or down-regulation, and the fold-regulation is the negative inverse of the fold-change. Additionally, p-values in Table 1 were calculated based on a Student's t-test of the replicate 2^(−Delta Ct) values for each gene in the control group and treatment groups."}, "[1]": {"test_system": "PDX-AML (Ven/HMA-resistant)", "assay": "PDX-AML (Ven/HMA-resistant) model, FLT3-ITD, NRAS, GATA2 mutations", "format": "in vivo, NSG mice", "description": "To evaluate the efficacy of targeting E-selectin with Compound A to selectively eradicate leukemia cells resistant to venetoclax/HMA therapy in the bone marrow niche, an […] PDX-AML model derived from an AML patient harboring FLT3-ITD, NRAS, and GATA2 mutations who initially responded to venetoclax/HMA therapy and then relapsed was employed (FIG. 1). The model reflects the present situation for many elderly AML patients: initial sensitivity, followed by resistance to venetoclax/HMA and relapse.\nPatient-derived PDX cells from an AML patient (2.5×10^6 cells/mouse) were transplanted via tail vein into NSG mice. Once AML cells began to engraft, mice were divided into four groups: vehicle treatment only; 40 mg/kg of Compound A; 50 mg/kg venetoclax+5.5 mg/kg 5-azacitidine; and a combination of 40 mg/kg Compound A and 50 mg/kg venetoclax+5.5 mg/kg 5-azacitidine. Drug treatment was performed from day 60 to day 82 post-transplantation.\nLeukemia progression and tumor burden were evaluated weekly during the treatment period (for 22 days) by determining the frequency and absolute number of human CD45^+ cells in peripheral blood using flow cytometry analysis. The synergistic effects of the combinatorial treatment on AML-PDX mouse survival were determined by Kaplan-Meier analysis (FIG. 2). […] The median survival of the vehicle control, Compound A, venetoclax/HMA, and combination-treated (Compound A+venetoclax/HMA) groups of mice was 86, 91, 81.5, and 106.5 days, respectively.\nAt the time when all of the control group of mice were moribund (after 23 days of treatment), 3 mice per group were sacrificed for single cell proteomics (CyTOF) and immunohistochemistry analysis."}, "[2]": {"test_system": "patient-derived primary AML xenograft (JAK2 and c-Kit)", "assay": "PDX model (mutations in JAK2 and c-Kit), LSC retention and CyTOF of BM cells", "format": "in vivo, mice", "description": "Intra-vital imaging was employed to investigate the effects of Compound B on AML cell motility in the bone marrow of triple reporter mice (Blood: dextran-TRITC; Host T-cells: DsRed; Host myeloid CD11 cells: EYFP) injected with AML cells carrying a turquoise fluorescent protein reporter gene. […] Individual cells were dislodged from the niche and traveled long-distance (FIG. 17C). The combined inhibition of E-selectin and CXCR4 depleted bone marrow vascular niche areas of leukemia cells.\nIn order to better understand how the augmented AML mobilization improves the efficacy of AML therapy, BM cells from PDX mice treated for 2 weeks with Compound A, Compound B, venetoclax/HMA (Ven/HMA), and their combinations were analyzed by single-cell proteomics (CyTOF). […] However, pharmacological antagonists of E-selectin (Compound A) or E-selectin/CXCR4 (Compound B) protected endothelial cells from Ven/HMA-induced detrimental insults through upregulation of survival signaling cascades, including pAKT, pERK, pMAPK and […] eNOS expression in endothelial cells compared to Ven/HMA treatment alone."}, "HUVEC co-cultured AML": {"test_system": "HUVEC co-cultured AML", "assay": "Cell cycle regulating protein expression in HUVEC co-cultured AML", "format": "cell-based, human"}, "[3]": {"conditions": "in combination with Ven/HMA, 2 weeks, CyTOF of BM cells"}},
  "data": [
    {"smiles": "Nc1ncn([C@@H]2O[C@H](CO)[C@@H](O)[C@H]2O)c(=O)n1", "note": "[5-azacitidine]", "values": [
      {"measurement": "2^-ΔCt Test Sample", "setting": "KG1 cells; ACTB", "result": "5.5E−01"},
      {"measurement": "AVG ΔCt (Ct(GOI) − Ave Ct (HKG)) Test Sample", "setting": "KG1 cells; ACTB", "result": 0.87},
      {"measurement": "Fold Change Test Sample/Control Sample", "setting": "KG1 cells; ACTB", "result": 0.58},
      {"measurement": "Fold Up- or Down-Regulation Test Sample/Control Sample", "setting": "KG1 cells; ACTB", "result": "−1.73"},
      {"measurement": "2^-ΔCt Test Sample", "setting": "KG1 cells; B3GNT5", "result": "2.3E−03"},
      {"measurement": "AVG ΔCt (Ct(GOI) − Ave Ct (HKG)) Test Sample", "setting": "KG1 cells; B3GNT5", "result": 8.74},
      {"measurement": "Fold Change Test Sample/Control Sample", "setting": "KG1 cells; B3GNT5", "result": 2.36},
      {"measurement": "Fold Up- or Down-Regulation Test Sample/Control Sample", "setting": "KG1 cells; B3GNT5", "result": 2.36},
      {"measurement": "2^-ΔCt Test Sample", "setting": "KG1 cells; CDKN1C", "result": "6.1E−04"},
      {"measurement": "AVG ΔCt (Ct(GOI) − Ave Ct (HKG)) Test Sample", "setting": "KG1 cells; CDKN1C", "result": 10.69},
      {"measurement": "Fold Change Test Sample/Control Sample", "setting": "KG1 cells; CDKN1C", "result": 1.24},
      {"measurement": "Fold Up- or Down-Regulation Test Sample/Control Sample", "setting": "KG1 cells; CDKN1C", "result": 1.24},
      {"measurement": "2^-ΔCt Test Sample", "setting": "KG1 cells; FUT3", "result": "3.3E−05"},
      {"measurement": "AVG ΔCt (Ct(GOI) − Ave Ct (HKG)) Test Sample", "setting": "KG1 cells; FUT3", "result": 14.89},
      {"measurement": "Fold Change Test Sample/Control Sample", "setting": "KG1 cells; FUT3", "result": 1.42},
      {"measurement": "Fold Up- or Down-Regulation Test Sample/Control Sample", "setting": "KG1 cells; FUT3", "result": 1.42},
      {"measurement": "2^-ΔCt Test Sample", "setting": "KG1 cells; FUT4", "result": "3.6E−05"},
      {"measurement": "AVG ΔCt (Ct(GOI) − Ave Ct (HKG)) Test Sample", "setting": "KG1 cells; FUT4", "result": 14.78},
      {"measurement": "Fold Change Test Sample/Control Sample", "setting": "KG1 cells; FUT4", "result": 0.98},
      {"measurement": "Fold Up- or Down-Regulation Test Sample/Control Sample", "setting": "KG1 cells; FUT4", "result": "−1.02"},
      {"measurement": "2^-ΔCt Test Sample", "setting": "KG1 cells; FUT5", "result": "3.3E−05"},
      {"measurement": "AVG ΔCt (Ct(GOI) − Ave Ct (HKG)) Test Sample", "setting": "KG1 cells; FUT5", "result": 14.89},
      {"measurement": "Fold Change Test Sample/Control Sample", "setting": "KG1 cells; FUT5", "result": 1.03},
      {"measurement": "Fold Up- or Down-Regulation Test Sample/Control Sample", "setting": "KG1 cells; FUT5", "result": 1.03},
      {"measurement": "2^-ΔCt Test Sample", "setting": "KG1 cells; FUT6", "result": "9.3E−05"},
      {"measurement": "AVG ΔCt (Ct(GOI) − Ave Ct (HKG)) Test Sample", "setting": "KG1 cells; FUT6", "result": 13.39},
      {"measurement": "Fold Change Test Sample/Control Sample", "setting": "KG1 cells; FUT6", "result": 3.27},
      {"measurement": "Fold Up- or Down-Regulation Test Sample/Control Sample", "setting": "KG1 cells; FUT6", "result": 3.27},
      {"measurement": "2^-ΔCt Test Sample", "setting": "KG1 cells; FUT7", "result": "3.0E−04"},
      {"measurement": "AVG ΔCt (Ct(GOI) − Ave Ct (HKG)) Test Sample", "setting": "KG1 cells; FUT7", "result": 11.71},
      {"measurement": "Fold Change Test Sample/Control Sample", "setting": "KG1 cells; FUT7", "result": 10.15},
      {"measurement": "Fold Up- or Down-Regulation Test Sample/Control Sample", "setting": "KG1 cells; FUT7", "result": 10.15},
      {"measurement": "2^-ΔCt Test Sample", "setting": "KG1 cells; FUT9", "result": "4.4E−05"},
      {"measurement": "AVG ΔCt (Ct(GOI) − Ave Ct (HKG)) Test Sample", "setting": "KG1 cells; FUT9", "result": 14.46},
      {"measurement": "Fold Change Test Sample/Control Sample", "setting": "KG1 cells; FUT9", "result": 1.92},
      {"measurement": "Fold Up- or Down-Regulation Test Sample/Control Sample", "setting": "KG1 cells; FUT9", "result": 1.92},
      {"measurement": "2^-ΔCt Test Sample", "setting": "KG1 cells; GAPDH", "result": "1.8E+00"},
      {"measurement": "AVG ΔCt (Ct(GOI) − Ave Ct (HKG)) Test Sample", "setting": "KG1 cells; GAPDH", "result": "−0.87"},
      {"measurement": "Fold Change Test Sample/Control Sample", "setting": "KG1 cells; GAPDH", "result": 1.73},
      {"measurement": "Fold Up- or Down-Regulation Test Sample/Control Sample", "setting": "KG1 cells; GAPDH", "result": 1.73},
      {"measurement": "2^-ΔCt Test Sample", "setting": "KG1 cells; ST3GAL3", "result": "5.0E−04"},
      {"measurement": "AVG ΔCt (Ct(GOI) − Ave Ct (HKG)) Test Sample", "setting": "KG1 cells; ST3GAL3", "result": 10.95},
      {"measurement": "Fold Change Test Sample/Control Sample", "setting": "KG1 cells; ST3GAL3", "result": 1.07},
      {"measurement": "Fold Up- or Down-Regulation Test Sample/Control Sample", "setting": "KG1 cells; ST3GAL3", "result": 1.07},
      {"measurement": "2^-ΔCt Test Sample", "setting": "KG1 cells; ST3GAL4", "result": "6.9E−03"},
      {"measurement": "AVG ΔCt (Ct(GOI) − Ave Ct (HKG)) Test Sample", "setting": "KG1 cells; ST3GAL4", "result": 7.17},
      {"measurement": "Fold Change Test Sample/Control Sample", "setting": "KG1 cells; ST3GAL4", "result": 2.78},
      {"measurement": "Fold Up- or Down-Regulation Test Sample/Control Sample", "setting": "KG1 cells; ST3GAL4", "result": 2.78},
      {"measurement": "2^-ΔCt Test Sample", "setting": "KG1 cells; ST3GAL6", "result": "2.0E−02"},
      {"measurement": "AVG ΔCt (Ct(GOI) − Ave Ct (HKG)) Test Sample", "setting": "KG1 cells; ST3GAL6", "result": 5.66},
      {"measurement": "Fold Change Test Sample/Control Sample", "setting": "KG1 cells; ST3GAL6", "result": 2.55},
      {"measurement": "Fold Up- or Down-Regulation Test Sample/Control Sample", "setting": "KG1 cells; ST3GAL6", "result": 2.55}
    ]},
    {"smiles": "CCC1CC(C(=O)NCCNC(=O)CCOCCOCCOCCOCCOCCOCCOCCOCCOCCOCCOCCOC)C[C@@H](O[C@@H]2OC(CO)[C@H](O)C(O[C@@H](CC3CCCCC3)C(=O)O)C2NC(C)=O)[C@@H]1OC1O[C@@H](C)[C@H](O)C(O)[C@@H]1O", "note": "(stereo partly drawn) [Compound A]", "values": [
      {"measurement": "median survival", "setting": "[1]; 40 mg/kg Compound A, 50 mg/kg venetoclax+5.5 mg/kg 5-azacitidine, day 60 to 82", "result": 91, "unit": "days"},
      {"measurement": "anti-leukemia efficacy of venetoclax/HMA", "setting": "[1]; CyTOF, in vivo administration", "result": "enhanced"},
      {"measurement": "leukemia cell infiltration in bone marrow, spleen, lung, and liver", "setting": "[1]; histology, Compound A only compared to normal control mice", "result": "increased"},
      {"measurement": "mobilization of human AML cells", "setting": "[1]; mouse, in vivo", "result": "mobilized"},
      {"measurement": "levels of E-selectin ligand, mTOR, pFAK, pRb, cMyc", "setting": "[2]; [3]", "result": "diminished"},
      {"measurement": "p21 and cleaved caspase3", "setting": "[2]; [3]", "result": "increasing"},
      {"measurement": "protection of endothelial cells from Ven/HMA-induced detrimental insults", "setting": "[2]; upregulated pAKT, pERK, pMAPK, decreased eNOS vs Ven/HMA alone", "result": "protected"},
      {"measurement": "expression of cell cycle regulating proteins including CDK4, CDK6, CyclinD1, and CyclinD2", "setting": "HUVEC co-cultured AML", "result": "increased"}
    ]}
  ]
}
